# Peptide text beside a SMILES is read from it. * marks the point of attachment. Cbz = O=C(OCc1ccccc1)*; CF3 = FC(F)(F)*
# Biological target: SARS-CoV 3CL^pro (Severe acute respiratory syndrome coronavirus, UniProt P0C6X7)
# Type: biochemical
smiles,measurement,value
"CC(C)C[C@H](NC(=O)[C@@H](NC(=O)[C@H](C)NC(=O)OCc1ccccc1)C(C)C)C(=O)N[C@@H](CCC(N)=O)C(=O)C(F)(F)F [Compound 4, (S)-4-[N-(Benzyloxycarbonyl)-L-alanyl-L-valyl-L-leucyl]amino-6,6,6-trifluoro-5-oxohexanamide] (Cbz-AVLQ-CF3)",inhibitory activity in words,moderate SARS-CoV 3CL^pro inhibitors
